Calls of active or inactive are those of the source. The rule behind the calls is not given here.
Columns and labels:
SH-SY5Y = experiment: Neuroprotective activity against H2O2-induced cytotoxicity in human SH-SY5Y cells assessed as cell viability at 10 uM pretreated for 2 hrs followed by H2O2 challenge and measured after 24 hrs by MTT assay relative to control; type: functional; details: for viability at 10 µM: read-out: Activity
RAW264.7 = experiment: Antiinflammatory activity in mouse RAW264.7 cells assessed as inhibition of LPS-induced nitric oxide production at 10 uM preincubated for 2 hrs followed by LPS stimulation and measured after 24 hrs by Griess assay relative to control; type: functional

SMILES	viability at 10 µM (SH-SY5Y) [%]	inhibition at 10 µM (RAW264.7) [%]	Activity (SH-SY5Y)
C[C@@H]1CC[C@@]2(OC1)O[C@H]1C[C@H]3[C@@H]4CC=C5C[C@@H](OC(=O)N6CCN(Cc7ccccc7)CC6)CC[C@]5(C)[C@H]4CC[C@]3(C)[C@H]1[C@@H]2C	11.2	–	–
C[C@@H]1CC[C@@]2(OC1)O[C@H]1C[C@H]3[C@@H]4CC=C5C[C@@H](OC(=O)N6CCCCC6)CC[C@]5(C)[C@H]4CC[C@]3(C)[C@H]1[C@@H]2C	36.7	12	–
Cc1ccc(CN(C)C(=O)O[C@H]2CC[C@@]3(C)C(=CC[C@H]4[C@@H]5C[C@@H]6O[C@]7(CC[C@@H](C)CO7)[C@@H](C)[C@@H]6[C@@]5(C)CC[C@@H]43)C2)cc1	–	–	inactive
C[C@@H]1CC[C@@]2(OC1)O[C@H]1C[C@H]3[C@@H]4CC=C5C[C@@H](OC(=O)NCc6ccccc6Cl)CC[C@]5(C)[C@H]4CC[C@]3(C)[C@H]1[C@@H]2C	8.9	–	–
CCCCNC(=O)O[C@H]1CC[C@@]2(C)C(=CC[C@H]3[C@@H]4C[C@@H]5O[C@]6(CC[C@@H](C)CO6)[C@@H](C)[C@@H]5[C@@]4(C)CC[C@@H]32)C1	47.8	11	–
CC(C)CN(C)C(=O)O[C@H]1CC[C@@]2(C)C(=CC[C@H]3[C@@H]4C[C@@H]5O[C@]6(CC[C@@H](C)CO6)[C@@H](C)[C@@H]5[C@@]4(C)CC[C@@H]32)C1	17.7	–	–
CCNC(=O)O[C@H]1CC[C@@]2(C)C(=CC[C@H]3[C@@H]4C[C@@H]5O[C@]6(CC[C@@H](C)CO6)[C@@H](C)[C@@H]5[C@@]4(C)CC[C@@H]32)C1	10.9	–	–
COc1ccccc1CNC(=O)O[C@H]1CC[C@@]2(C)C(=CC[C@H]3[C@@H]4C[C@@H]5O[C@]6(CC[C@@H](C)CO6)[C@@H](C)[C@@H]5[C@@]4(C)CC[C@@H]32)C1	11.3	–	–
COc1ccc(CNC(=O)O[C@H]2CC[C@@]3(C)C(=CC[C@H]4[C@@H]5C[C@@H]6O[C@]7(CC[C@@H](C)CO7)[C@@H](C)[C@@H]6[C@@]5(C)CC[C@@H]43)C2)cc1	53.5	18.6	–
C[C@@H]1CC[C@@]2(OC1)O[C@H]1C[C@H]3[C@@H]4CC=C5C[C@@H](OC(=O)NC6CCCCC6)CC[C@]5(C)[C@H]4CC[C@]3(C)[C@H]1[C@@H]2C	34.4	11.6	–
C[C@@H]1CC[C@@]2(OC1)O[C@H]1C[C@H]3[C@@H]4CC=C5C[C@@H](OC(=O)N6CCN(Cc7ccc(Cl)cc7)CC6)CC[C@]5(C)[C@H]4CC[C@]3(C)[C@H]1[C@@H]2C	4.5	–	–
C[C@@H]1CC[C@@]2(OC1)O[C@H]1C[C@H]3[C@@H]4CC=C5C[C@@H](OC(=O)NCc6ccncc6)CC[C@]5(C)[C@H]4CC[C@]3(C)[C@H]1[C@@H]2C	42.1	11.8	–
C[C@@H]1CC[C@@]2(OC1)O[C@H]1C[C@H]3[C@@H]4CC=C5C[C@@H](OC(=O)N6CCN(Cc7ccc(F)cc7)CC6)CC[C@]5(C)[C@H]4CC[C@]3(C)[C@H]1[C@@H]2C	5.4	–	–
C[C@@H]1CC[C@@]2(OC1)O[C@H]1C[C@H]3[C@@H]4CC=C5C[C@@H](OC(=O)NCc6cccc(Cl)c6)CC[C@]5(C)[C@H]4CC[C@]3(C)[C@H]1[C@@H]2C	13.7	–	–
COc1ccc(CN2CCN(C(=O)O[C@H]3CC[C@@]4(C)C(=CC[C@H]5[C@@H]6C[C@@H]7O[C@]8(CC[C@@H](C)CO8)[C@@H](C)[C@@H]7[C@@]6(C)CC[C@@H]54)C3)CC2)cc1	–	–	inactive
C[C@@H]1CC[C@@]2(OC1)O[C@H]1C[C@H]3[C@@H]4CC=C5C[C@@H](OC(=O)N(C)Cc6ccc(F)cc6)CC[C@]5(C)[C@H]4CC[C@]3(C)[C@H]1[C@@H]2C	10.7	–	–
C[C@@H]1CC[C@@]2(OC1)O[C@H]1C[C@H]3[C@@H]4CC=C5C[C@@H](OC(=O)NC(C)(C)C)CC[C@]5(C)[C@H]4CC[C@]3(C)[C@H]1[C@@H]2C	7.7	–	–
C[C@@H]1CC[C@@]2(OC1)O[C@H]1C[C@H]3[C@@H]4CC=C5C[C@@H](OC(=O)NCc6ccc(C(F)(F)F)cc6)CC[C@]5(C)[C@H]4CC[C@]3(C)[C@H]1[C@@H]2C	–	–	inactive
C[C@@H]1CC[C@@]2(OC1)O[C@H]1C[C@H]3[C@@H]4CC=C5C[C@@H](OC(=O)N6CCN(C)CC6)CC[C@]5(C)[C@H]4CC[C@]3(C)[C@H]1[C@@H]2C	3.6	–	–
COc1ccc(CN(C)C(=O)O[C@H]2CC[C@@]3(C)C(=CC[C@H]4[C@@H]5C[C@@H]6O[C@]7(CC[C@@H](C)CO7)[C@@H](C)[C@@H]6[C@@]5(C)CC[C@@H]43)C2)cc1	19.4	–	–

SMILES	viability at 10 µM (SH-SY5Y) [%]	inhibition at 10 µM (RAW264.7) [%]	Activity (SH-SY5Y)
C[C@@H]1CC[C@@]2(OC1)O[C@H]1C[C@H]3[C@@H]4CC=C5C[C@@H](OC(=O)N6CCN(Cc7ccc(O)cc7)CC6)CC[C@]5(C)[C@H]4CC[C@]3(C)[C@H]1[C@@H]2C	9.7	–	–
C[C@@H]1CC[C@@]2(OC1)O[C@H]1C[C@H]3[C@@H]4CC=C5C[C@@H](O)CC[C@]5(C)[C@H]4CC[C@]3(C)[C@H]1[C@@H]2C [DISOGENIN]	6.7	–	–
CCN(C)C(=O)O[C@H]1CC[C@@]2(C)C(=CC[C@H]3[C@@H]4C[C@@H]5O[C@]6(CC[C@@H](C)CO6)[C@@H](C)[C@@H]5[C@@]4(C)CC[C@@H]32)C1	4.3	–	–
C[C@@H]1CC[C@@]2(OC1)O[C@H]1C[C@H]3[C@@H]4CC=C5C[C@@H](OC(=O)NCc6cccc(F)c6)CC[C@]5(C)[C@H]4CC[C@]3(C)[C@H]1[C@@H]2C	27.4	–	–
C[C@@H]1CC[C@@]2(OC1)O[C@H]1C[C@H]3[C@@H]4CC=C5C[C@@H](OC(=O)NCc6ccccc6F)CC[C@]5(C)[C@H]4CC[C@]3(C)[C@H]1[C@@H]2C	21	–	–
Cc1ccccc1CNC(=O)O[C@H]1CC[C@@]2(C)C(=CC[C@H]3[C@@H]4C[C@@H]5O[C@]6(CC[C@@H](C)CO6)[C@@H](C)[C@@H]5[C@@]4(C)CC[C@@H]32)C1	7.9	–	–
C[C@@H]1CC[C@@]2(OC1)O[C@H]1C[C@H]3[C@@H]4CC=C5C[C@@H](OC(=O)NCc6ccc(Cl)cc6)CC[C@]5(C)[C@H]4CC[C@]3(C)[C@H]1[C@@H]2C	56.9	7	–
Cc1ccc(CNC(=O)O[C@H]2CC[C@@]3(C)C(=CC[C@H]4[C@@H]5C[C@@H]6O[C@]7(CC[C@@H](C)CO7)[C@@H](C)[C@@H]6[C@@]5(C)CC[C@@H]43)C2)cc1	26.3	–	–
CC(C)CNC(=O)O[C@H]1CC[C@@]2(C)C(=CC[C@H]3[C@@H]4C[C@@H]5O[C@]6(CC[C@@H](C)CO6)[C@@H](C)[C@@H]5[C@@]4(C)CC[C@@H]32)C1	25.3	–	–
C[C@@H]1CC[C@@]2(OC1)O[C@H]1C[C@H]3[C@@H]4CC=C5C[C@@H](OC(=O)NCc6cccnc6)CC[C@]5(C)[C@H]4CC[C@]3(C)[C@H]1[C@@H]2C	3.5	–	–
C[C@@H]1CC[C@@]2(OC1)O[C@H]1C[C@H]3[C@@H]4CC=C5C[C@@H](OC(=O)NC6CC6)CC[C@]5(C)[C@H]4CC[C@]3(C)[C@H]1[C@@H]2C	–	–	inactive
Cc1cccc(CNC(=O)O[C@H]2CC[C@@]3(C)C(=CC[C@H]4[C@@H]5C[C@@H]6O[C@]7(CC[C@@H](C)CO7)[C@@H](C)[C@@H]6[C@@]5(C)CC[C@@H]43)C2)c1	14.2	–	–
C[C@@H]1CC[C@@]2(OC1)O[C@H]1C[C@H]3[C@@H]4CC=C5C[C@@H](OC(=O)N(C)Cc6ccccc6)CC[C@]5(C)[C@H]4CC[C@]3(C)[C@H]1[C@@H]2C	43.5	20.8	–
COc1cc(CN2CCN(C(=O)O[C@H]3CC[C@@]4(C)C(=CC[C@H]5[C@@H]6C[C@@H]7O[C@]8(CC[C@@H](C)CO8)[C@@H](C)[C@@H]7[C@@]6(C)CC[C@@H]54)C3)CC2)ccc1O	23.1	–	–
C[C@@H]1CC[C@@]2(OC1)O[C@H]1C[C@H]3[C@@H]4CC=C5C[C@@H](OC(=O)NCc6ccc(F)cc6)CC[C@]5(C)[C@H]4CC[C@]3(C)[C@H]1[C@@H]2C	60.1	18.6	–
C[C@@H]1CC[C@@]2(OC1)O[C@H]1C[C@H]3[C@@H]4CC=C5C[C@@H](OC(=O)N(C)Cc6ccc(Cl)cc6)CC[C@]5(C)[C@H]4CC[C@]3(C)[C@H]1[C@@H]2C	43.9	12.5	–
C[C@@H]1CC[C@@]2(OC1)O[C@H]1C[C@H]3[C@@H]4CC=C5C[C@@H](OC(=O)NCc6cnccn6)CC[C@]5(C)[C@H]4CC[C@]3(C)[C@H]1[C@@H]2C	22.3	–	–
C[C@@H]1CC[C@@]2(OC1)O[C@H]1C[C@H]3[C@@H]4CC=C5C[C@@H](OC(=O)NC6CCCC6)CC[C@]5(C)[C@H]4CC[C@]3(C)[C@H]1[C@@H]2C	3.3	–	–
COc1cccc(CNC(=O)O[C@H]2CC[C@@]3(C)C(=CC[C@H]4[C@@H]5C[C@@H]6O[C@]7(CC[C@@H](C)CO7)[C@@H](C)[C@@H]6[C@@]5(C)CC[C@@H]43)C2)c1	38.8	9.8	–
C[C@@H]1CC[C@@]2(OC1)O[C@H]1C[C@H]3[C@@H]4CC=C5C[C@@H](OC(=O)N6CCCC6)CC[C@]5(C)[C@H]4CC[C@]3(C)[C@H]1[C@@H]2C	63.2	16.5	–
